Activity calls are given as the source filed them. The calls are words filed in the database; no cut-off is given here.
What was measured:
[1] = test system: Intestinal mucosa; assay: Inhibition of IL6 production in intestinal mucosa derived from ulcerative colitis patient measured after 24 hrs by sandwich ELISA; assay type: functional, tissue-based; conditions: Homo sapiens
[2] = AUC in Sprague-Dawley rat at 2 mg/kg, po administered through cassette dosing by LC-MS/MS analysis; assay type: ADME, organism-based; conditions: in vivo
[3] = target: T1, Receptor-interacting serine/threonine-protein kinase 3 (Homo sapiens, UniProt Q9Y572); assay: Inhibition of RIPK3 (unknown origin) preincubated for 10 mins followed by addition of fluorescent-labeled 2-Methyl-5-(2-propen-l-yloxy)aniline measured after 10 mins by fluorescence polarization assay
Target sequence in this assay (Q9Y572 whole entry): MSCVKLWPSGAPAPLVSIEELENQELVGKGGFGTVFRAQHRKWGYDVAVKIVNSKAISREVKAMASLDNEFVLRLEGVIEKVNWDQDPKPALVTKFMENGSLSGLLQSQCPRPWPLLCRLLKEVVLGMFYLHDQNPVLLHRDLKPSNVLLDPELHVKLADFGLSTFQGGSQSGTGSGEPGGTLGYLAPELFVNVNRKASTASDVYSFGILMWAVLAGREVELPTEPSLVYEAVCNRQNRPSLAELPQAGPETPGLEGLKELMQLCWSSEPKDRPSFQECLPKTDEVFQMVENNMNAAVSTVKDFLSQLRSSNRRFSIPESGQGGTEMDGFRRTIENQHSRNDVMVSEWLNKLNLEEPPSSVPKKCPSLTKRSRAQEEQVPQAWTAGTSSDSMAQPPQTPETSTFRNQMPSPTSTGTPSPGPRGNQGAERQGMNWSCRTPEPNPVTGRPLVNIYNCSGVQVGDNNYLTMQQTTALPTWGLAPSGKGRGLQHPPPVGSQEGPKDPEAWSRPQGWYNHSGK

[4] = Cmax in C57BL/6 mouse at 2 mg/kg, po by LC-MS/MS analysis; assay type: ADME, organism-based; set-up: dose 2 mg/kg, route oral; conditions: in vivo
[5] = target: Vascular endothelial growth factor receptor 2 (Homo sapiens, UniProt P35968)
[6] = Fraction unbound in Sprague-Dawley rat blood at 2 mg/kg, po or 1 mg/kg, iv; assay type: ADME, organism-based; conditions: whole blood
[7] = target: T2, Interleukin-1 receptor type 1 (Homo sapiens) (UniProt P14778); assay: Activation of IL-1R in human monocytes assessed as inhibition of IL-1beta-stimulated TNF-alpha production preincubated for 30 mins prior to IL-1beta stimulation at 1 uM measured after 6 hrs by immunoassay; assay type: cell-based
T2 sequence (whole entry): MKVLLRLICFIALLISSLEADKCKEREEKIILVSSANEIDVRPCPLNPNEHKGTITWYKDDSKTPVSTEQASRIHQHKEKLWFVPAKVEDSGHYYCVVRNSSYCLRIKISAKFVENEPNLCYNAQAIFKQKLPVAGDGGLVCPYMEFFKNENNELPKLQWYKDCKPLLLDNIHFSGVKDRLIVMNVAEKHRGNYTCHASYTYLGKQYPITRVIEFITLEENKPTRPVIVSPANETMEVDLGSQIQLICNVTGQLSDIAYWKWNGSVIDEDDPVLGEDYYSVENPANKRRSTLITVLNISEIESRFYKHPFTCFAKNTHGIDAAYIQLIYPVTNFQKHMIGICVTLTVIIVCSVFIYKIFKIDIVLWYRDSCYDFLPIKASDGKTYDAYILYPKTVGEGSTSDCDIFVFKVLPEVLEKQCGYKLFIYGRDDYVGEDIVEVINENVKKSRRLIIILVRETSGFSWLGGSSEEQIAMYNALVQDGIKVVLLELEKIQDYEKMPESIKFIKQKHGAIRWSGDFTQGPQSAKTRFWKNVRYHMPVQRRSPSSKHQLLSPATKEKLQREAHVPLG

[8] = test system: Intestinal mucosa; assay: Inhibition of IL6 production in intestinal mucosa derived from Crohn's disease patient measured after 24 hrs by sandwich ELISA; assay type: functional, tissue-based; conditions: Homo sapiens
[9] = Half life in Sprague-Dawley rat at 2 mg/kg, po and 1 mg/kg, iv by LC-MS/MS analysis; assay type: ADME, organism-based; conditions: in vivo
[10] = target: Toll-like receptor 4 (Homo sapiens) (UniProt O00206); assay: Activation of TLR4 receptor in human monocytes assessed as inhibition of LPS-stimulated TNF-alpha production preincubated for 30 mins prior to LPS stimulation at 1 uM measured after 6 hrs by immunoassay; assay type: cell-based
[11] = AUC in C57BL/6 mouse at 2 mg/kg, po by LC-MS/MS analysis; assay type: ADME, organism-based; conditions: in vivo
[12] = target: T3, Nucleotide-binding oligomerization domain-containing protein 1 (Homo sapiens) (UniProt Q9Y239); assay: Activation of NOD1 in human monocytes assessed as inhibition of ieDAP-stimulated IL8 production preincubated for 30 mins prior to ieDAP stimulation at 1 uM measured after 6 hrs by immunoassay; assay type: cell-based
T3 sequence (whole entry): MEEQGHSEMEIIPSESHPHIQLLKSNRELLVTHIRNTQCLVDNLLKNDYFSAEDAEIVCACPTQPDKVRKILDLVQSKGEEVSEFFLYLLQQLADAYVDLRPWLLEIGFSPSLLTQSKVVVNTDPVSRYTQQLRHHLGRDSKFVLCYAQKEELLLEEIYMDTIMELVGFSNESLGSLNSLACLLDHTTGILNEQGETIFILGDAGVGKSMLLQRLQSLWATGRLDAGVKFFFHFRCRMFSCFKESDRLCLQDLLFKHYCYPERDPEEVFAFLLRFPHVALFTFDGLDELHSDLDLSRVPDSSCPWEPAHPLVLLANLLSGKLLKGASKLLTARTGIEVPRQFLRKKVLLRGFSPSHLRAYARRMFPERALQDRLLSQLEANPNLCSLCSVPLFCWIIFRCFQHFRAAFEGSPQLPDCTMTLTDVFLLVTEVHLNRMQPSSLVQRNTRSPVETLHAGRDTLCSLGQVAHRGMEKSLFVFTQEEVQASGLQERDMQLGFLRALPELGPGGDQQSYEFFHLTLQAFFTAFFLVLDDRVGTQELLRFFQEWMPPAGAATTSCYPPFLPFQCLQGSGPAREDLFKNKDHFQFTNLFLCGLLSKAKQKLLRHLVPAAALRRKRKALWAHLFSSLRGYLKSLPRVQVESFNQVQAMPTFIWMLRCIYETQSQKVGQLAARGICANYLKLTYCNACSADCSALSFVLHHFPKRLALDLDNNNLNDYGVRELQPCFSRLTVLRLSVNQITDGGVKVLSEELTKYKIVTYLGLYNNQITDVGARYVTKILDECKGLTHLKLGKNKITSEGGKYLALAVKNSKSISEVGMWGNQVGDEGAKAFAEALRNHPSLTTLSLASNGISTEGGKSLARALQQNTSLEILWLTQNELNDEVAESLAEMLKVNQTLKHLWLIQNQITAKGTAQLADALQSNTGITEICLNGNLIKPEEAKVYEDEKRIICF

[13] = Oral bioavailability in C57BL/6 mouse at 2 mg/kg by LC-MS/MS analysis; assay type: ADME, organism-based; conditions: in vivo
[14] = target: T1, Receptor-interacting serine/threonine-protein kinase 3; assay: Inhibition of RIPK3 (unknown origin) in HEK-293 cells assessed as necroptic cell death at 10 uM by cell-based assay; conditions: HEK293
Target sequence in this assay (Q9Y572 whole entry, looked up): as the sequence (Q9Y572 whole entry) above

Toll-like receptor 4 (Homo sapiens), sequence (O00206 whole entry): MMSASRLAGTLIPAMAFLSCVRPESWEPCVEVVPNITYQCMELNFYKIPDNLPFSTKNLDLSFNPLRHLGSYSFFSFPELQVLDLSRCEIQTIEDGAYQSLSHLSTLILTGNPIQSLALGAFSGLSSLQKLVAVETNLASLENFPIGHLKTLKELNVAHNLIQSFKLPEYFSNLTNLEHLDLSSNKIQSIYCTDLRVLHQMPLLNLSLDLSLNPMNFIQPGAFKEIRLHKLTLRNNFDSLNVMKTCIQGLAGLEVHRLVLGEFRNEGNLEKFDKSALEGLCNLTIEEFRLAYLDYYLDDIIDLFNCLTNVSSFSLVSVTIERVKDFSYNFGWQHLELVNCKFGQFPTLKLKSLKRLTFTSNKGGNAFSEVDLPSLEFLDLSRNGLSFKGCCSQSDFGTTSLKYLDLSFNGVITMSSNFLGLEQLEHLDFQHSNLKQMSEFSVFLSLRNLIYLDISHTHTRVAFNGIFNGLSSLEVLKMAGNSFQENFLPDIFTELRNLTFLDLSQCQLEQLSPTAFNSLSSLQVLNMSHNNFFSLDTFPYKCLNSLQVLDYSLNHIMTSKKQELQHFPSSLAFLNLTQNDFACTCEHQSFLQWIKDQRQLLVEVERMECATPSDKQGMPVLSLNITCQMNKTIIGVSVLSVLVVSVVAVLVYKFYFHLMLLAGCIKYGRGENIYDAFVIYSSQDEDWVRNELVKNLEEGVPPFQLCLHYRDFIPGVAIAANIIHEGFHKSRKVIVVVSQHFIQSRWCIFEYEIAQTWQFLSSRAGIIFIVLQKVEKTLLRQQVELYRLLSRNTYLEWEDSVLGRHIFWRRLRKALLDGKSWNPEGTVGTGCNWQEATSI
Vascular endothelial growth factor receptor 2, sequence (P35968 whole entry): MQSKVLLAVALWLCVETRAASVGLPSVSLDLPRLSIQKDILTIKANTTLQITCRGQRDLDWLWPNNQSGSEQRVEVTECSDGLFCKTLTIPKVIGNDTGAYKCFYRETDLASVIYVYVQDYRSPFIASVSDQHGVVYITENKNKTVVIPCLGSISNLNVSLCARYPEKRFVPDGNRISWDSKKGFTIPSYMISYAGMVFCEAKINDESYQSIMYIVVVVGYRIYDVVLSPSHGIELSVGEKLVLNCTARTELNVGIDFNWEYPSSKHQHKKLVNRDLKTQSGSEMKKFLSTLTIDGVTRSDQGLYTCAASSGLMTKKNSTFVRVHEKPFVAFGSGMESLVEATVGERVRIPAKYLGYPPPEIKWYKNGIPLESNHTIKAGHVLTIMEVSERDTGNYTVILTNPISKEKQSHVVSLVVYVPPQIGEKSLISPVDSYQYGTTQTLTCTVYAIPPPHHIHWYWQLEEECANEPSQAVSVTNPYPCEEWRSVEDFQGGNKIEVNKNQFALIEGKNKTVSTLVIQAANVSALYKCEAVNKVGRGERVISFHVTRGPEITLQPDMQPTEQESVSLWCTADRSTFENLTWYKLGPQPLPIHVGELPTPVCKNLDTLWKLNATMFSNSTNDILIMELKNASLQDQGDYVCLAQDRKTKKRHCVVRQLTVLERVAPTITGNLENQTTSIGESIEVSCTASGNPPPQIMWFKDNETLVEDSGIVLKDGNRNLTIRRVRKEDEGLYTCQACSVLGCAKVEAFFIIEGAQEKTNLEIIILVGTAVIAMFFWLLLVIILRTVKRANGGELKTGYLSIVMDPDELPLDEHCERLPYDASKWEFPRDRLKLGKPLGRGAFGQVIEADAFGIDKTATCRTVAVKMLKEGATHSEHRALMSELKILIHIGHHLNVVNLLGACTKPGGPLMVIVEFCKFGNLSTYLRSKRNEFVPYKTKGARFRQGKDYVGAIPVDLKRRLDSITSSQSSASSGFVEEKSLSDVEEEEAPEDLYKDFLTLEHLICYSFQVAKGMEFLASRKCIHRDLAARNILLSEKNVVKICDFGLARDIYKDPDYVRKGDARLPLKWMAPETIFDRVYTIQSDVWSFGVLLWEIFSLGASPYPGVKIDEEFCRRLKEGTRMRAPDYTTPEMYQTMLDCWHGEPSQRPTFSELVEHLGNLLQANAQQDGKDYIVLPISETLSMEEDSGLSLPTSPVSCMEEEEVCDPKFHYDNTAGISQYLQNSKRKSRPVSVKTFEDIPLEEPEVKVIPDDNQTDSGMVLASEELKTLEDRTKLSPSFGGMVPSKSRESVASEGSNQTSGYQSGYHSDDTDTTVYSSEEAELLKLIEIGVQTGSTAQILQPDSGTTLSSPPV

## CC(C)(C)S(=O)(=O)c1ccc2nccc(Nc3n[nH]c4ccc(F)cc34)c2c1
[1]
  inhibition: Dose-dependent effect
[2]
  AUC: 980 ng·h/mL
[3]
  IC50: 16 nM
[4]
  Cmax: 340 ng/mL
[5]
  IC50: > 5000 nM
[6]
  fraction unbound: 0.026
[7]
  inhibition: Active
[8]
  inhibition: Dose-dependent effect
[9]
  half-life: 3.1 h
[10]
  inhibition: Active
[11]
  AUC: 860 ng·h/mL
[12]
  inhibition: Active
[13]
  bioavailability: 34%
[14]
  inhibition: inactive

— ChEMBL document CHEMBL3822396 (J Med Chem, 2016)
